“Also recorded” adds a separate entry of the source.
Key:
[1] = target: T1, GABAA α5β3γ2 subtype receptor (Homo sapiens, UniProt P18507+P31644); assay: GABA-gated Cl- current potentiation in Xenopus oocytes expressing GABAA α5β3γ2 (TEVC); format: cell-based; details: for activation at 1 µM: read-out: GABA α5 EC50 % potentiation; for positive allosteric modulation of GABA at GABAA α5 receptors: concentration response 0.01-100 μM, FIGS. 1(A)-(D)
T1 construct: myc-His (vector-encoded); expressed in transfected cells; host or cells: Xenopus laevis oocytes injected with cDNAs
T1 sequence (P31644 32-462): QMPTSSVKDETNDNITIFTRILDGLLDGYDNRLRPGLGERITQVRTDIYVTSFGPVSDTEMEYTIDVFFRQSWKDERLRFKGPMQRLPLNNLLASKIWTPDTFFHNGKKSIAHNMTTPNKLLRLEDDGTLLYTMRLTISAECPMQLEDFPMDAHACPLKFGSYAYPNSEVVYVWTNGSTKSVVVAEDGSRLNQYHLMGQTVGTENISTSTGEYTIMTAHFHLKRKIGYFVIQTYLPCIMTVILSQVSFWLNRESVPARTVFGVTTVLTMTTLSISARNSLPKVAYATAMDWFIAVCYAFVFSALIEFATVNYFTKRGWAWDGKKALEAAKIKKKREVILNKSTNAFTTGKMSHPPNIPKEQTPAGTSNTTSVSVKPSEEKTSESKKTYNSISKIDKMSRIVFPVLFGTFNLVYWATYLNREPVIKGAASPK
T1 sequence (P28472 26-473 partner): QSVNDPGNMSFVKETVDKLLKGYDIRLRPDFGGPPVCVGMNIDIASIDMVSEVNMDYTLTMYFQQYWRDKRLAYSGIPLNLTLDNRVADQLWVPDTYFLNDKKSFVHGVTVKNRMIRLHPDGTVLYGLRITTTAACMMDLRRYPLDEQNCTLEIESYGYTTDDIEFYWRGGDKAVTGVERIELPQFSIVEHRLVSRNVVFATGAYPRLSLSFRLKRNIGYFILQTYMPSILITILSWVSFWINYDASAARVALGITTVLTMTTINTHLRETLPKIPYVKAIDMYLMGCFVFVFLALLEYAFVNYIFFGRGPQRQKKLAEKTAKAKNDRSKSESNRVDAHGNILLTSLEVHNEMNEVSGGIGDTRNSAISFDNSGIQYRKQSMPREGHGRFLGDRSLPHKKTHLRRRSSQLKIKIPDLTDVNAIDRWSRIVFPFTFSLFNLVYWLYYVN
T1 sequence (P18507 40-467 limits assumed): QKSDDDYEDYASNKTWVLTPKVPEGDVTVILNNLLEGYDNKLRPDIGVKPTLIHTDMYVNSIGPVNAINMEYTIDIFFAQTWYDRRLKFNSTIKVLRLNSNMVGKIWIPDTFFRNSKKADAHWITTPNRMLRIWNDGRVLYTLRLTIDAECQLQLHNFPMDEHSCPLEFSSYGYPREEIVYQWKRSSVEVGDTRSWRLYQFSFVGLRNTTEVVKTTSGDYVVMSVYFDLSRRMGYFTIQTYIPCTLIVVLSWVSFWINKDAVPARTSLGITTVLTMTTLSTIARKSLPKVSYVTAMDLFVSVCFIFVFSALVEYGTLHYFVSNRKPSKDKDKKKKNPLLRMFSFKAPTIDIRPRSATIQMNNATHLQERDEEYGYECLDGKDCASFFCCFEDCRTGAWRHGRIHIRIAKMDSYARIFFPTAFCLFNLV
From the text: (§1) Step 1: Establish Clones of GABAAR Subunits (α5, β3, γ2, α1, α2 and α3) and Prepare the Corresponding cRNAs: Human clones of GABAA-R α5, β3, γ2, α1, α2 and α3 subunits are obtained from commercial resources (e.g., OriGene, http://www.origene.com and Genescript, http://www.genescript.com). These clones are engineered into pRC, pCDM, pcDNA, and pBluescript KSM vector (for oocyte expression) or other equivalent expression vectors. Conventional transfection agents (e.g., FuGene, Lipofectamine 2000, or others) are used to transiently transfect host cells.
Adult female Xenopus laevis frogs were purchased from Nasco (Fort Atkinson, Wis.). […] All chemicals used were of reagent grade. […] Stock solutions of Diazepam, Flumazenil and compounds of the present invention were prepared in dimethyl sulfoxide (DMSO) and then diluted to an appropriate concentration with the extracellular solution just before use. To avoid adverse effects from DMSO exposure, the final concentration of DMSO was not higher than 0.3% (v/v).
Upon conclusion of compound testing and successful washout, a 1.0 μM Diazepam was tested and used for comparative activity on the two GABAAR subtypes.
Other concentrations of the test compound may also be tested following the same protocol.
Results are expressed as mean±SEM.

[2] = target: T2, GABAA α1 receptors (α1β2γ2) (Homo sapiens, UniProt P14867+P18507); assay: GABA-gated Cl- current in Xenopus oocytes expressing GABAA α1β2γ2 (TEVC), off-target activity; format: cell-based; details: concentration response 0.01-100 μM; FIGS. 1(A)-(D)
T2 construct: expressed in transfected cells; host or cells: Xenopus laevis oocytes injected with cDNAs
T2 sequence (P14867 28-456): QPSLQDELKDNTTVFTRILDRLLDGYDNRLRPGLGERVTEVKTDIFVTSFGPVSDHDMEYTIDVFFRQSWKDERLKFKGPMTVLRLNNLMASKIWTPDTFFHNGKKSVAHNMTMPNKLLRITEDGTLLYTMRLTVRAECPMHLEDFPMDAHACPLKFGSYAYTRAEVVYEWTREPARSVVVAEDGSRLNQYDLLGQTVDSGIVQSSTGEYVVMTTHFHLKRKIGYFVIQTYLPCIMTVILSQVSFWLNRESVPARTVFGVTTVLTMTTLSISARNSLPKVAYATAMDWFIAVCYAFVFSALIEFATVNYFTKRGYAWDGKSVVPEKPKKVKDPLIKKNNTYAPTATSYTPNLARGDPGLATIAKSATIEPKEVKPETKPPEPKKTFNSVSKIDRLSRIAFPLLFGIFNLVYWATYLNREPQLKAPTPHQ
T2 sequence (P47870 25-512 partner limits assumed): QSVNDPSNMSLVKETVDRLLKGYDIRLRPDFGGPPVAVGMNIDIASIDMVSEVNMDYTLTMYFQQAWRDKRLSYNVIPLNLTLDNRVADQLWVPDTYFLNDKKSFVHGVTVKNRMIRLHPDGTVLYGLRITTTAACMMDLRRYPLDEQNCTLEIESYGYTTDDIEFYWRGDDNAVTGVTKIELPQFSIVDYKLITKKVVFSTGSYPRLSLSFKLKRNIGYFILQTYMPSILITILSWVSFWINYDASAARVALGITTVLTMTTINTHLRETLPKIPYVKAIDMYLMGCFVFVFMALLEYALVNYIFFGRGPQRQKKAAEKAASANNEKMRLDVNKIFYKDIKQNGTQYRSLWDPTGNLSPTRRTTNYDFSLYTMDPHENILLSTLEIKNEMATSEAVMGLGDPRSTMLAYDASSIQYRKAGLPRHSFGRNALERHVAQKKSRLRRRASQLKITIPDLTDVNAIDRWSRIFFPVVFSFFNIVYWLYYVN
T2 sequence (P18507 40-467 limits assumed): T1 sequence (P18507 40-467 limits assumed)
From the text: as §1
Xenopus oocytes were isolated according to previously published procedures (see, e.g., Goldin et al. Methods Enzymol. 207:266-279 (1992)). The isolated Xenopus oocytes were injected with GABAAR cDNAs (1:1:1 ratio for a total volume of 1 ng of α1βγ2 or α5β3γ2) cloned into mammalian expression vectors. In particular, α1, β2, γ2 were cloned into pcDNA3.1. and α5 and β3 were cloned into pcDNA3.1 myc-His. Vectors were verified by partial sequencing (DNA Core Facility, University of Southern California, USA). After injection, oocytes were stored in incubation medium (Modified Barth's Saline (MBS) supplemented with 2 mM sodium pyruvate, 0.5 mM theophylline and 50 mg/L gentamycin), in petri dishes (VWR, San Dimas, Calif.). All solutions were sterilized by passage through 0.22 μM filters. […] Oocytes were used in experiments for up to 5 days after injection.
A high-throughput two-electrode voltage clamp (TEVC) system (OpusXpress A6000; Molecular Devices, Union City, Calif.), which automates the impalement of oocytes, fluid delivery and current recording from 8 oocytes in parallel, was used to carry out all electrophysiological recordings.
Xenopus Oocytes expressing GABAA-R α5β3γ2 or α1β2γ2 subtype, as prepared in section (A) above, were placed in 8 chambers of OpusXpress and perfused by MBS at 3 mL/min. Glass electrodes back-filled with 3 M KCl (0.5-3 megaohms) were used. Membrane potential of oocytes was voltage-clamped at −60 mV. Oocytes with holding current larger than 0.5 μA were discarded.
Data for each experimental point were obtained from 4 or more Xenopus oocytes and from at least two different frogs. The n refers to the number of Xenopus oocytes tested. Results are expressed as mean±SEM. […] Prism (GraphPAD Software, San Diego, Calif.) and Excel were used to perform curve fitting and statistical analyses.

GABAA α5 receptor = GABAA α5 receptor (Rattus norvegicus, UniProt P18508+P19969); assay: GABAA α5 receptor occupancy in vivo with Ro 15-4513 tracer (hippocampus vs cerebellum); details: tracer 1 μg/kg, i.v., after vehicle administration
Sequence of GABAA α5 receptor (P19969 32-464 limits assumed): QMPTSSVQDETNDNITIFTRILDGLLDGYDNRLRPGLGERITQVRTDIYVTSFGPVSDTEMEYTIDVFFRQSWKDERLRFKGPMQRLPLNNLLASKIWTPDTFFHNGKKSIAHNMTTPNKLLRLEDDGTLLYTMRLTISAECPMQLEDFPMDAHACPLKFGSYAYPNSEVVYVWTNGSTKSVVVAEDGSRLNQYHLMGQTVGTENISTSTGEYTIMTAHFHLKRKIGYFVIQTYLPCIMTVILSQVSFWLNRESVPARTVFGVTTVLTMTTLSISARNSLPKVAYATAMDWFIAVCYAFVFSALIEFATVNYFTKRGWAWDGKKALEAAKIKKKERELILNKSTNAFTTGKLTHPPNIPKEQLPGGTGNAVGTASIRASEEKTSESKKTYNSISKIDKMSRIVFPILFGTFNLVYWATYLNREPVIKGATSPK
Sequence of GABAA α5 receptor (P18508 39-466): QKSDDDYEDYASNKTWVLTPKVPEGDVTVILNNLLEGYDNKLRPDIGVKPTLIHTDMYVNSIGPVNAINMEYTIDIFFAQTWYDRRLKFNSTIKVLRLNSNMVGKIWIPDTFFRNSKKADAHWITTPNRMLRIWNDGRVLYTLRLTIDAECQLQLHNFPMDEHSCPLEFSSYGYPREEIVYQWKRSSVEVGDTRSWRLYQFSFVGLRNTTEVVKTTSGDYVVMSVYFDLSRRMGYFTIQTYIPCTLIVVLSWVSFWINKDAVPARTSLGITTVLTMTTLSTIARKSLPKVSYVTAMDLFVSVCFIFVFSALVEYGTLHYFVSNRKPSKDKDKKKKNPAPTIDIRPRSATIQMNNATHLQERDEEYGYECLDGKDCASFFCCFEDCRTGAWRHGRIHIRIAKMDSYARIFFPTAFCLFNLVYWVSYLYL
Sequence of GABAA α5 receptor (P63079 26-473 partner): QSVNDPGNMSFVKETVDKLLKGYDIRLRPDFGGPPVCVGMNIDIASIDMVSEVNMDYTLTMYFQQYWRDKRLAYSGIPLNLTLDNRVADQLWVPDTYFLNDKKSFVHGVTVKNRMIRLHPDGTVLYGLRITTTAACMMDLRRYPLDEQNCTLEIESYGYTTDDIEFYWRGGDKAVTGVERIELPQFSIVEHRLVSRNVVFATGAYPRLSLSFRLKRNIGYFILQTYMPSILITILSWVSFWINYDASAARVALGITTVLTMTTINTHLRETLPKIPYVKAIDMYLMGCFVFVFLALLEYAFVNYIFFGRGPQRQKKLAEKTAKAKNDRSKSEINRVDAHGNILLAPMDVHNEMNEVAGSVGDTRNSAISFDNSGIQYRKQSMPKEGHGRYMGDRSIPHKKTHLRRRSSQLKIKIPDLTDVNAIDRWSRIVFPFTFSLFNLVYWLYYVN
From the text: Adult male Long Evans rats (265-295 g, Charles River, Portage, Mich., n=4/group) were used for GABAA α5 receptor occupancy studies. Rats were individually housed in ventilated stainless-steel racks on a 12:12 light/dark cycle. Food and water were available ad libitum.
Ro 15-4513 was used as a receptor occupancy (RO) tracer for GABAA α5 receptor sites in the hippocampus and cerebellum. Ro 15-4513 was chosen as the tracer based on its selectivity for GABAA α5 receptors relative to other alpha subunit containing GABAA receptors and because it has been successfully used for GABAA α5 RO studies in animals and humans (see, e.g., Lingford-Hughes et al., J. Cereb. Blood Flow Metab. 22:878-89 (2002); Pym et al, Br. J. Pharmacol. 146: 817-825 (2005); and Maeda et al., Synapse 47: 200-208 (2003)). Ro 15-4513 (1 μg/kg), was dissolved in 25% hydroxyl-propyl beta-cyclodextrin and administered i.v. 20′ prior to the RO evaluations. Methyl 3,5-diphenylpyridazine-4-carboxylate (0.1-10 mg/kg) was synthesized by Nox Pharmaceuticals (India) and was dissolved in 25% hydroxyl-propyl beta-cyclodextrin and administered i.v. 15′ prior to tracer injection.
The rats were sacrificed by cervical dislocation 20′ post tracer injection. The whole brain was rapidly removed, and lightly rinsed with sterile water. Trunk blood was collected in EDTA coated eppendorf tubes and stored on wet ice until study completion. Hippocampus and cerebellum were dissected and stored in 1.5 ml eppendorf tubes, and placed on wet ice until tissue extraction. In a drug naïve rat, six cortical brain tissues samples were collected for use in generating blank and standard curve samples.
Acetonitrile containing 0.1% formic acid was added to each sample at a volume of four times the weight of the tissue sample. For the standard curve (0.1-30 ng/g) samples, a calculated volume of standard reduced the volume of acetonitrile. The sample was homogenized (FastPrep-24, Lysing Matrix D; 5.5 m/s, for 60 seconds or 7-8 watts power using sonic probe dismembrator; Fisher Scientific) and centrifuged for 16-minutes at 14,000 rpm. The (100 μl) supernatant solution was diluted by 300 μl of sterile water (pH 6.5). This solution was then mixed thoroughly and analyzed via LC/MS/MS for […] (tracer) and methyl 3,5-diphenylpyridazine-4-carboxylate.
Receptor occupancy was determined by the ratio method which compared occupancy in the hippocampus (a region of high GABAA α5 receptor density) with occupancy in the cerebellum (a region with low GABAA α5 receptor density) and additionally by a high dose of the GABAA α5 negative allosteric modulator L-655,708 (10 mg/kg, i.v.) to define full occupancy.

| activation at 1 µM [1] | positive allosteric modulation of GABA at GABAA α5 receptors [1] | SMILES | positive allosteric modulation at GABAA α1 receptors [2] | levels of Ro 15-4513 in hippocampus compared with cerebellum (GABAA α5 receptor) |
| --- | --- | --- | --- | --- |
| 8.6% | – | CCc1coc(-c2c(-c3ccccc3)cnnc2-c2ccccc2)n1 [Compound 22, 2-(3,5-diphenylpyridazin-4-yl)-4-ethyloxazole] | – | – |
| 6% | – | COc1cccc(-c2nncc(-c3ccccc3)c2-c2nc(C)co2)c1 [Compound 24] | – | – |
| 8.6% | – | COC(=O)C1COC(c2c(-c3ccccc3)cnnc2-c2ccccc2)=N1 (centres unmarked) [Compound 25, Methyl 2-(3,5-diphenylpyridazin-4-yl)-4,5-dihydrooxazole-4-carboxylate] | – | – |
| 15.8% | strong positive allosteric modulation | COC(=O)c1coc(-c2c(-c3ccccc3)cnnc2-c2ccccc2)n1 [Compound 26, Methyl 2-(3,5-diphenylpyridazin-4-yl)oxazole-4-carboxylate] | markedly reduced positive allosteric modulation; also recorded: no evidence of activity | – |
| 30.5% | strong positive allosteric modulation | COC(=O)c1coc(-c2c(-c3ccccc3)cnnc2-c2cccc(Cl)c2)n1 [Compound 27] | markedly reduced positive allosteric modulation | – |

The remaining lines, values behind:

| SMILES | activation at 1 µM [1] | positive allosteric modulation of GABA at GABAA α5 receptors [1] | positive allosteric modulation at GABAA α1 receptors [2] | levels of Ro 15-4513 in hippocampus compared with cerebellum (GABAA α5 receptor) |
| --- | --- | --- | --- | --- |
| CNC(=O)c1c(-c2ccccc2)cnnc1-c1ccccc1 [Compound 1, N-methyl-3,5-diphenylpyridazine-4-carboxamide] | 8.5% | – | – | – |
| CC(C)NC(=O)c1c(-c2ccccc2)cnnc1-c1ccccc1 [Compound 2] | 8.2% | – | – | – |
| NC(=O)c1c(-c2ccccc2)cnnc1-c1ccccc1 [Compound 3] | 11.1% | – | – | – |
| CN(C)C(=O)c1c(-c2ccccc2)cnnc1-c1ccccc1 [Compound 4] | 42% | strong positive allosteric modulation | markedly reduced positive allosteric modulation | – |
| O=C(c1c(-c2ccccc2)cnnc1-c1ccccc1)N(Cc1ccccc1)Cc1ccccc1 [Compound 5] | 4.6% | – | – | – |
| O=C(NCc1ccccc1)c1c(-c2ccccc2)cnnc1-c1ccccc1 [Compound 9] | 10% | – | – | – |
| COc1cccc(-c2nncc(-c3ccccc3)c2C(=O)O)c1 [Compound 11] | 19.2% | – | – | – |
| CC1COC(c2c(-c3ccccc3)cnnc2-c2ccccc2)=N1 (centres unmarked) [Compound 21, 2-(3,5-diphenylpyridazin-4-yl)-4-methyl-4,5-dihydrooxazole] | 5.3% | – | – | – |
| CCOC(=O)c1ncn2c1CN(C)C(=O)c1cc(N=[N+]=[N-])ccc1-2 [Ro 15-4513] | – | – | – | > 5 fold |

From patent publication US9145372B2, “Pyridazine derivatives, compositions and methods for treating cognitive impairment” (AGENEBIO, INC., priority 2010, dated 2015)
